What was measured:
Human Carboxypeptidase B = molecular target: T1, Human Carboxypeptidase B (Homo sapiens, UniProt P15086); assay: Oxidative inactivation of Carboxypeptidase by combinations of metal salts and reducing agents (enzymatic activity); assay type: biochemical; details: reducing agent 1 mM, metal salt 5 μM, compared with original activity, in % (unit assumed)
T1 sequence (P15086 111-417): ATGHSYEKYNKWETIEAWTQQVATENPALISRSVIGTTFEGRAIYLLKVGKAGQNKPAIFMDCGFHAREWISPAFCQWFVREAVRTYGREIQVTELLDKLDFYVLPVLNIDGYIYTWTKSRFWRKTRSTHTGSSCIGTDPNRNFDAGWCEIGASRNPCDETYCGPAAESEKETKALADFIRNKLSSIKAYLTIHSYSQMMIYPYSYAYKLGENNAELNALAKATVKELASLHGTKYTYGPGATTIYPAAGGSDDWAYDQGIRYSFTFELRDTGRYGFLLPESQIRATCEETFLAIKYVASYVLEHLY
Experimental: (§1) Enzyme Activity Assay: The assay of enzymatic activity of each enzyme in the presence of its specific substrate was performed at a particular wavelength by using UV spectrophotometer, and it served as a negative control. The enzyme activity was calculated as: […]
(§2) Enzyme Inhibition Assay: Incubation was performed with inhibitor of each enzyme, which served as a positive control.
(§3) Incubation with metal ion(s) and reducing agent(s): Incubation of enzymes with combination of metal salt(s) and reducing agent(s) in microtitre 96 well plate was done for a specific period of time in presence of substrates to examine their oxidative inactivation. Inactivation of enzyme in presence of metal ion(s) and reducing agent(s) was compared with the original enzyme activity in the presence of substrate as a negative control and in the presence of inhibitor as a positive control.
Assay for Enzymatic Activity of Carboxypeptidase B Using Hippuryl-Arginine
4 units of Carboxypeptidase B in cold deionized water, 1 mm Hippuryl-Arginine solution in 25 mM Iris Buffer solution containing 100 mM Sodium Chloride (pH 7.65) were prepared, separately at about 25° C. 3 ml reaction mixtures (Test and blank) were prepared using above prepared solutions according to Table 9 at 25° C. […]
(§4) For a 200 μl reaction mixture, about 10 μl Carboxypeptidase was incubated in buffer with the combination of metal salts and reducing agents (provided in Table 2 at serial number 1 through 31) at respective concentration at 37° C. in 96 well microtitre plates (Table 3 hereinabove provides details on utilization of a particular combination from those provided at serial number 1 through 31 in Table 2) for 5 min, 15 min and 30 min followed by the addition of respective 90 μl substrate (provided in Table 1A). The enzyme activity was measured spectrophotometrically in a microplate reader, and was compared with original activity assay. The pH was measured by Hanna Combination pH electrode (reaction with enzyme was performed in triplicates). […]

Porcine Aminopeptidase M = molecular target: T2, Porcine Aminopeptidase M (Sus scrofa, UniProt P15145); assay: Oxidative inactivation of Aminopeptidase by combinations of metal salts and reducing agents (enzymatic activity); assay type: biochemical; details: compared with original activity, in % (unit assumed)
T2 sequence (P15145 1-963): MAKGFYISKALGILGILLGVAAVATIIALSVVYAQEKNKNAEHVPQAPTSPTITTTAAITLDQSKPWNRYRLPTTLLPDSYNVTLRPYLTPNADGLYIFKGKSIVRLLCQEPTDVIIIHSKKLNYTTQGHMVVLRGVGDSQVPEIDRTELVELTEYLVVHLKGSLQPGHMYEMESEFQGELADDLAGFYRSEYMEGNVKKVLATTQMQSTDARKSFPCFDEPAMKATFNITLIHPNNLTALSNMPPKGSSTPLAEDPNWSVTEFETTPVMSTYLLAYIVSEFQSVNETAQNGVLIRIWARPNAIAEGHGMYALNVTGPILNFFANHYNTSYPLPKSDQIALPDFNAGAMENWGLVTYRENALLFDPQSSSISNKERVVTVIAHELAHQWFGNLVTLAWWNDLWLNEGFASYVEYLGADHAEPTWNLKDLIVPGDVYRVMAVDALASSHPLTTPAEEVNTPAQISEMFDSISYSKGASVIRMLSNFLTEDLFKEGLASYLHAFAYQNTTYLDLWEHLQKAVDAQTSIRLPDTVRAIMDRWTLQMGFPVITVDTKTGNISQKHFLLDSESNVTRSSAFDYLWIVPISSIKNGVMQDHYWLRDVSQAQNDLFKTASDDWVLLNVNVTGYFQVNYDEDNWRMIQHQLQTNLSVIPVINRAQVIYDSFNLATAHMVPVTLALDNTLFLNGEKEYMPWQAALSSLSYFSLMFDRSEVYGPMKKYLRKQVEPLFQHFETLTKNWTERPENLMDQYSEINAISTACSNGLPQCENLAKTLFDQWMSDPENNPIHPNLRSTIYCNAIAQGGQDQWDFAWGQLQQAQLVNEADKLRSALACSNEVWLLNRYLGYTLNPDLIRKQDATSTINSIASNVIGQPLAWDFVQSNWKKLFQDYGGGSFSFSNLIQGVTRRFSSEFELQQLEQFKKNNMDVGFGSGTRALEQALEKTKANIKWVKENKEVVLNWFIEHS
Experimental: as §1, §2, §3
To Assay the Enzymatic Activity of Aminopeptidase M Using L-Leucine-p-Nitroanilide
1 mM Tricine solution (Prepared in 100 ml deionized water, Reagent A) and 50 mM L-Leucine-p-nitroanilide solution in absolute methanol (Reagent B) were prepared, separately. […] Reagent G, Reagent E and Reagent F were mixed immediately by inversion to prepare test and blank solution as directed in table 12, and the increase in ΔA405 nm was recorded for approximately 5 minutes. ΔA405 nm/minute was obtained using maximum linear rate for both the Test and blank solution. […]
as §4, with “Aminopeptidase” for “Carboxypeptidase”, “assay.” for “assay. The pH was measured by Hanna Combination pH electrode (reaction with enzyme was performed in triplicates).”

[1] = Quantification of insulin glargine level in STZ induced diabetic rat plasma (Glargine ELISA), bioavailability; assay type: in vivo, S.D. rats; details: following subcutaneous and mid-jejunum administration, rats
Experimental: (§5) Quantification of Glucose & Insulin Glargine Level in STZ Induced Diabetic Rat Plasma
(§6) Glucose & insulin glargine levels in plasma were quantified after dosing several formulations of insulin glargine to mid-jejunum in STZ induced diabetic S.D. rats.
(§7) Test formulation I: Insulin glargine (Lantus®)—Appearance: Solution for injection in a prefilled pen; Concentration: 100 IU/ml; Storage condition: 2-8° C.; Dose: 0.2 U/kg; Route: SC.
(§8) Test formulation II: Insulin glargine Formulation—MIRA 1 (Reduced glutathione/Chromium Picolinate of Table 15A)+Permeation Enhancer 1 (PA 1 of Table 16A) (oral solution in TRIS buffer)—Dose: 1.7 U/animal; Route: mid-jejunum
(§9) Test formulation III: Insulin glargine Formulation—PA 2 (of Table 16B) and MIRA 2 (Ascorbate Sodium/Vanadium Oxide of Table 15B) (oral solution in TRIS buffer)—Dose: 1.7 U/animal; Route: mid-jejunum.
The clinical signs observed are normal. […] Glucose was measured immediately after blood collection using Glucometer. […]
Principle: This Glargine ELISA is a two-site immunoassay, employing a monoclonal antibody immobilised on microtitre wells and a soluble antibody labelled with horseradish peroxidase (HRP). […] The intensity of the colour developed in each well is quantified in a microtitre plate reader set to record transmitted light at a wavelength of 450 nm (Kit Protocol: Used manufacturer recommended protocol Cat. No. MBS495369) […]

[2] = test system: STZ induced diabetic S.D. rats; assay: Glucose level in STZ induced diabetic rats after different formulations (Glucometer, % inhibition); assay type: in vivo; details: glucose by Glucometer
Experimental: as §5, §6, §7, §8, §9
The clinical signs observed are normal. With respect to sampling time points, during dosing, the blood collection time points was at 0, 20, 40, 60, 120 and 150 minutes post dose. ˜100 μl of blood was collected in a pre-filled Na-EDTA eppendorf, from retro-orbital sinus puncture. Blood was centrifuged at 5000 rpm, 5 min, 4° c. to obtain plasma. Glucose was measured immediately after blood collection using Glucometer.

Row | Molecule | Enzymatic activity of Carboxypeptidase (Human Carboxypeptidase B; incubation 5 min at 37° C.) | Enzymatic activity of Carboxypeptidase (Human Carboxypeptidase B; incubation 15 min at 37° C.) | Enzymatic activity of Carboxypeptidase (Human Carboxypeptidase B; incubation 30 min at 37° C.) | Enzymatic activity of Aminopeptidase (Porcine Aminopeptidase M; Time 5 min incubation at 37° C.) | Enzymatic activity of Aminopeptidase (Porcine Aminopeptidase M; Time 15 min incubation at 37° C.) | Enzymatic activity of Aminopeptidase (Porcine Aminopeptidase M; Time 30 min incubation at 37° C.) | clinical signs [1] | mortality [1] | % inhibition ([2]; 20 min post dose) [%] | % inhibition ([2]; 40 min post dose) [%] | % inhibition ([2]; 60 min post dose) [%] | % inhibition ([2]; 120 min post dose) [%] | % inhibition ([2]; 150 min post dose) [%]
1 | O=C(/C=C/C=C/c1ccc2c(c1)OCO2)N1CCCCC1 [Piperine] | 104.5 | 91.7 | 62.26 | 108 | 100.4 | 80.52 | – | – | – | – | – | – | –
2 | Insulin glargine | – | – | – | – | – | – | normal | no mortality observed | 22.9 | 25.5 | 22 | 39 | 17.2

Reference: US12208118B2, “Pharmaceutical compositions for delivery of peptide” (ANYA BIOPHARM INC., priority 2017, dated 2025)
